Test system: Bacillus substilis (ATCC6633)
Test: Inhibition circle (penicillin cup) measurement of antimicrobial activity changed by viscoelastic substance
Assay type: cell-based, Bacillus subtilis
Description: The activity of an antimicrobial agent changes depending upon a type of viscoelastic substance. Such a change was measured by using Bacillus substilis (ATCC6633 referred to as “B subtilis”) and the following viscoelastic substances: First, B. subtilis (0.1 mL of 1.4×10^8 CFU/ML) was spread on a 4% heart infusion medium. Subsequently, a penicillin cup was placed on the medium, and a test solution was poured in the cup. As test solutions, the following groups were used. 0.1 mL of an antimicrobial agent was added to a penicillin cup. Five concentrations from […] were prepared for each antimicrobial agent; 0.1 mL of a viscoelastic substance was added to a penicillin cup; After 0.1 mL of a viscoelastic substance was added to a penicillin cup and allowed to stand still and then 0.1 mL of 5 or 2.5 μg/mL antimicrobial agent was gently added to the viscoelastic substance layer; and 0.1 mL of a viscoelastic substance and 0.1 mL of 5 or 2.5 μg/mL antimicrobial agent were mixed and added to a penicillin cup. Each group was cultured in an incubator at 35° C. for 24 hours. The size of the inhibition circle of B. subtilis was measured. Based on the measurement results of the single antimicrobial agent group, a curve showing the size of inhibition circle versus the antimicrobial agent concentration (referred to as a standard curve) was obtained with respect to individual antimicrobial agents.

SMILES: CCn1cc(C(=O)O)c(=O)c2cc(F)c(N3CCNCC3)cc21 [NFLX, norfloxacin]
- activity of the antimicrobial agent compared to the standard curve (layered group: NFLX layered on HL, OP or VC): lower than the standard
- antimicrobial activity, ranking among viscoelastic substances (layered group: NFLX layered on VC): lowest
- bacterial proliferation suppression activity compared to the standard curve (mixture group: NFLX mixed with HL, OP or VC, FIG. 5): lower than values of the standard curve but not so significant

Source: US20020183279A1, “Pharmaceutical composition containing viscoelastic substance and medication” (Koichiro TANAKA, priority 2001, published 2002)
